This is an account of results in US10221177B2 (HYDRA BIOSCIENCES, INC., priority 2014, dated 2019).

Some results are limits rather than exact numbers.

The target in this assay is human TRPA1 (Homo sapiens (Human), UniProt O75762). Nature of the assay: In vitro inhibition of human TRPA1, whole cell patch configuration. Format: cell-based. The settings on record: current activation 10 μM AITC, tested concentrations 320 pM to 3.2 μM, read-out: hTRPA1 IC50. An outline of the steps: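 Compound antagonism measured from voltage ramps (±100 or ±80 mV, 400 ms, every 4 s from −40 mV), analysed at −80 and 80 mV, or at constant −60 mV. HEPES-buffered NaCl bath, pH 7.4, EGTA or 2 mM Ca2+; temperature set by perfusion, within ±2° C; no junction-potential correction.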
human TRPA1, sequence (O75762 whole entry, the tested form may be a part): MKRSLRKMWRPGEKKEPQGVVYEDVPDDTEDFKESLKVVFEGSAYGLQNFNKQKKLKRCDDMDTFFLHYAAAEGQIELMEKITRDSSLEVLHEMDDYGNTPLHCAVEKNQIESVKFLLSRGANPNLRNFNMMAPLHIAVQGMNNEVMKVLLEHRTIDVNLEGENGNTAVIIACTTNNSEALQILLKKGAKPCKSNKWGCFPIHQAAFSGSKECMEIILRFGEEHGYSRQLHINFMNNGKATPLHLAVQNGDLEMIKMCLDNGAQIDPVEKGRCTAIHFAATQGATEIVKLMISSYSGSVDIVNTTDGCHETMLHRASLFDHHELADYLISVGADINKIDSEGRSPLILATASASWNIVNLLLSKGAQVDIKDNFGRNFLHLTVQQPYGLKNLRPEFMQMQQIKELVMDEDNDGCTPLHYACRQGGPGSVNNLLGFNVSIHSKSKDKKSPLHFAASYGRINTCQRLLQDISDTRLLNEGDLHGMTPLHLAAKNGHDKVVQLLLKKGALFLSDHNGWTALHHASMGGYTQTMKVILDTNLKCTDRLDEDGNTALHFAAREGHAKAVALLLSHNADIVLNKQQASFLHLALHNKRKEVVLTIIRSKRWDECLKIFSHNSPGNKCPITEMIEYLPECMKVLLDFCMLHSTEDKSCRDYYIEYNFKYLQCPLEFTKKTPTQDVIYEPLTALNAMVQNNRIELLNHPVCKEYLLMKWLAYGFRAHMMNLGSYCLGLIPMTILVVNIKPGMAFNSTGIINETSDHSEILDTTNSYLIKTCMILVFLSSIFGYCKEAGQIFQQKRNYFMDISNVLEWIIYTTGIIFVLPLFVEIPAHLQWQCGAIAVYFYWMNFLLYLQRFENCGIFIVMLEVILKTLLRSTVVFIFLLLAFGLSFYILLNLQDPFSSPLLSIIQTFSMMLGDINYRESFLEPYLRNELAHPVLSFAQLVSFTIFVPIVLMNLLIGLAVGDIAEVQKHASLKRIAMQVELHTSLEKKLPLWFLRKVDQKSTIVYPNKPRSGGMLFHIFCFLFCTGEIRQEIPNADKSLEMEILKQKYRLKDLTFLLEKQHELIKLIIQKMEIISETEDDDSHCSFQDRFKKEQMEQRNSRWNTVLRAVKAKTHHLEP
Consider `Cc1nc2c(c(=O)n(Cc3ccccn3)c(=O)n2C)n1CC(=O)Nc1cccc(-c2ccc(F)c(F)c2)n1` [Compound 175, N-(6-(3,4-difluorophenyl)pyridin-2-yl)-2-(3,8-dimethyl-2,6-dioxo-1-(pyridin-2-ylmethyl)-2,3-dihydro-1H-purin-7(6H)-yl)acetamide], for which the IC50 – broadly, the point on the concentration scale where inhibition reaches its midpoint – was found to be 54 nM.

Consider `Cc1nc2c(c(=O)n(Cc3ccccn3)c(=O)n2C)n1CC(=O)Nc1cccc(-c2cnc(C(F)(F)F)nc2)n1` [Compound 177, 2-(3,8-dimethyl-2,6-dioxo-1-(pyridin-2-ylmethyl)-2,3-dihydro-1H-purin-7(6H)-yl)-N-(6-(2-(trifluoromethyl)pyrimidin-5-yl)pyridin-2-yl)acetamide], for which the IC50 is 42 nM.

For the compound `Cn1c(=O)n(Cc2ccccn2)c(=O)c2c1ncn2CC(=O)Nc1csc(-c2ccc(F)c(F)c2)n1` [Compound 178, N-(2-(3,4-difluorophenyl)thiazol-4-yl)-2-(3-methyl-2,6-dioxo-1-(pyridin-2-ylmethyl)-2,3-dihydro-1H-purin-7(6H)-yl)acetamide], the IC50 was found to be 14 nM.

`CC(=O)Cn1c(=O)c2c(ncn2CC(=O)Nc2cccc(-c3ccc(Cl)cc3)n2)n(C)c1=O` [Compound 181, N-(6-(4-chlorophenyl)pyridin-2-yl)-2-(3-methyl-2,6-dioxo-1-(2-oxopropyl)-1,2,3,6-tetrahydropurin-7-yl)acetamide]: the IC50 stood at 19 nM.

On to `CC(=O)Cn1c(=O)c2c(ncn2CC(=O)Nc2cccc(-c3ccc(F)c(F)c3)n2)n(C)c1=O` [Compound 182, N-(6-(3,4-difluorophenyl)pyridin-2-yl)-2-(3-methyl-2,6-dioxo-1-(2-oxopropyl)-1,2,3,6-tetrahydropurin-7-yl)acetamide], for which the IC50 was 42 nM.

As to `CC(=O)Cn1c(=O)c2c(ncn2CC(=O)Nc2cccc(-c3cnc(N4CCC[C@H]4C(F)(F)F)nc3)n2)n(C)c1=O` [Compound 183, (S)-2-(3-methyl-2,6-dioxo-1-(2-oxopropyl)-1,2,3,6-tetrahydropurin-7-yl)-N-(6-(2-(2-(trifluoromethyl)pyrrolidin-1-yl)pyrimidin-5-yl)pyridin-2-yl)acetamide], the IC50 amounted to 3 nM.

In the case of `CC(O)Cn1c(=O)c2c(ncn2CC(=O)Nc2cccc(-c3cnc(N4CCC[C@H]4C(F)(F)F)nc3)n2)n(C)c1=O` (stereo partly drawn) [Compound 184, 2-(1-(2-hydroxypropyl)-3-methyl-2,6-dioxo-1,2,3,6-tetrahydropurin-7-yl)-N-(6-(2-((S)-2-(trifluoromethyl)pyrrolidin-1-yl)pyrimidin-5-yl)pyridin-2-yl)acetamide], the IC50 was found to be 310 nM.

For `CC(=O)Cn1c(=O)c2c(ncn2CC(=O)Nc2cccc(-c3cnc(C(F)(F)F)nc3)n2)n(C)c1=O` [Compound 185, 2-(3-methyl-2,6-dioxo-1-(2-oxopropyl)-2,3-dihydro-1H-purin-7(6H)-yl)-N-(6-(2-(trifluoromethyl)pyrimidin-5-yl)pyridin-2-yl)acetamide], the IC50 was 45 nM.

As to `Cn1c(=O)n(Cc2ccccn2)c(=O)c2c1ncn2CC(=O)Nc1cccc(-c2cnc(C(F)(F)F)nc2)n1` [Compound 186, 2-(3-methyl-2,6-dioxo-1-(pyridin-2-ylmethyl)-2,3-dihydro-1H-purin-7(6H)-yl)-N-(6-(2-(trifluoromethyl)pyrimidin-5-yl)pyridin-2-yl)acetamide], the IC50 turned out to be 74 nM.

In the case of `Cn1c(=O)n(Cc2ccccn2)c(=O)c2c1ncn2CC(=O)Nc1cccc(-c2ccc(F)c(F)c2)n1` [Compound 187, N-(6-(3,4-difluorophenyl)pyridin-2-yl)-2-(3-methyl-2,6-dioxo-1-(pyridin-2-ylmethyl)-2,3-dihydro-1H-purin-7(6H)-yl)acetamide], the IC50 came to 74 nM.

With `Cn1c(=O)n(Cc2ccccn2)c(=O)c2c1ncn2CC(=O)Nc1cccc(-c2ccc(Cl)cc2)n1` [Compound 188, N-(6-(4-chlorophenyl)pyridin-2-yl)-2-(3-methyl-2,6-dioxo-1-(pyridin-2-ylmethyl)-2,3-dihydro-1H-purin-7(6H)-yl)acetamide], the IC50 was 33 nM.

For the compound `Cn1c(=O)n(Cc2ccccn2)c(=O)c2c1ncn2CC(=O)Nc1cccc(-c2cnc(N3CCC[C@H]3C(F)(F)F)nc2)n1` [Compound 189, (S)-2-(3-methyl-2,6-dioxo-1-(pyridin-2-ylmethyl)-2,3-dihydro-1H-purin-7(6H)-yl)-N-(6-(2-(2-(trifluoromethyl)pyrrolidin-1-yl)pyrimidin-5-yl)pyridin-2-yl)acetamide], the IC50 turned out to be 2 nM.

Take `Cn1c(=O)n(Cc2ccccn2)c(=O)c2c1ncn2CC(=O)Nc1csc(-c2ccc(Cl)cc2)n1` [Compound 190]: the IC50 amounted to 17 nM.

Turning to `Cn1c(=O)n(Cc2ccccn2)c(=O)c2c1ncn2CC(=O)Nc1csc(-c2cnc(C(F)(F)F)nc2)n1` [Compound 191, 2-(3-methyl-2,6-dioxo-1-(pyridin-2-ylmethyl)-2,3-dihydro-1H-purin-7(6H)-yl)-N-(2-(2-(trifluoromethyl)pyrimidin-5-yl)thiazol-4-yl)acetamide], the IC50 was found to be 51 nM.

As for `CC(=O)Cn1c(=O)c2c(nc(C)n2CC(=O)Nc2cccc(-c3ccc(Cl)cc3)n2)n(C)c1=O` [Compound 192, N-(6-(4-chlorophenyl)pyridin-2-yl)-2-(3,8-dimethyl-2,6-dioxo-1-(2-oxopropyl)-1,2,3,6-tetrahydropurin-7-yl)acetamide], the IC50 turned out to be 33 nM.

In the case of `CC(=O)Cn1c(=O)c2c(nc(C)n2CC(=O)Nc2cccc(-c3ccc(F)c(F)c3)n2)n(C)c1=O` [Compound 193, N-(6-(3,4-difluorophenyl)pyridin-2-yl)-2-(3,8-dimethyl-2,6-dioxo-1-(2-oxopropyl)-1,2,3,6-tetrahydropurin-7-yl)acetamide], the IC50 came to 45 nM.

In the case of `CC(=O)Cn1c(=O)c2c(nc(C)n2CC(=O)Nc2cccc(-c3cnc(C(F)(F)F)nc3)n2)n(C)c1=O` [Compound 194, 2-(3,8-dimethyl-2,6-dioxo-1-(2-oxopropyl)-1,2,3,6-tetrahydropurin-7-yl)-N-(6-(2-(trifluo-romethyl)pyrimidin-5-yl)pyridin-2-yl)acetamide], the IC50 is 62 nM.

Consider `CC(=O)Cn1c(=O)c2c(nc(C)n2CC(=O)Nc2cccc(-c3cnc(N4CCC[C@H]4C(F)(F)F)nc3)n2)n(C)c1=O` [Compound 195], for which the IC50 amounted to 3 nM.

On to `Cc1cc(Cn2c(=O)c3c(ncn3CC(=O)Nc3cccc(N4CCC(F)(F)CC4)n3)n(C)c2=O)no1` [Compound 196, N-(6-(4,4-difluoropiperidin-1-yl)pyridin-2-yl)-2-(3-methyl-1-((5-methylisoxazol-3-yl)methyl)-2,6-dioxo-2,3-dihydro-1H-purin-7(6H)-yl)acetamide], for which the IC50 was found to be 122 nM.

Consider `Cc1cc(Cn2c(=O)c3c(ncn3CC(=O)Nc3cccc(N4CC(F)(F)C4)n3)n(C)c2=O)no1` [Compound 197, N-(6-(3,3-difluoroazetidin-1-yl)pyridin-2-yl)-2-(3-methyl-1-((5-methylisoxazol-3-yl)methyl)-2,6-dioxo-2,3-dihydro-1H-purin-7(6H)-yl)acetamide], for which the IC50 amounted to 294 nM.

Turning to `Cc1cc(Cn2c(=O)c3c(ncn3CC(=O)Nc3ccc4ccccc4n3)n(C)c2=O)no1` [Compound 199, 2-(3-Methyl-1-((5-methylisoxazol-3-yl)methyl)-2,6-dioxo-2,3-dihydro-1H-purin-7(6H)-yl)-N-(quinolin-2-yl)acetamide], the IC50 turned out to be 404 nM.

Consider `Cc1cc(Cn2c(=O)c3c(ncn3CC(=O)Nc3ccc(Br)c(C(F)(F)F)n3)n(C)c2=O)no1` [Compound 200, N-(5-bromo-6-(trifluoromethyl)pyridin-2-yl)-2-(3-methyl-1-((5-methyl-isoxazol-3-yl)methyl)-2,6-dioxo-2,3-dihydro-1H-purin-7(6H)-yl)acetamide], for which the IC50 was 34 nM.

In the case of `Cc1cc(Cn2c(=O)c3c(ncn3CC(=O)Nc3ccc(C#N)c(C(F)(F)F)n3)n(C)c2=O)no1` [Compound 201, N-(5-cyano-6-(trifluoromethyl)pyridin-2-yl)-2-(3-methyl-1-((5-methylisoxazol-3-yl)methyl)-2,6-dioxo-2,3-dihydro-1H-purin-7(6H)-yl)acetamide], the IC50 is 309 nM.

Consider `Cc1cc(Cn2c(=O)c3c(ncn3CC(=O)Nc3cccc(N4CCC(C(F)(F)F)CC4)n3)n(C)c2=O)no1` [Compound 202, 2-(3-methyl-1-((5-methylisoxazol-3-yl)methyl)-2,6-dioxo-2,3-dihydro-1H-purin-7(6H)-yl)-N-(6-(4-(trifluoromethyl)piperidin-1-yl)pyridin-2-yl)acetamide], for which the IC50 turned out to be 26 nM.

With `CCc1cc(NC(=O)Cn2cnc3c2c(=O)n(Cc2cc(C)on2)c(=O)n3C)nc(C(F)(F)F)c1` [Compound 203, N-(4-ethyl-6-(trifluoromethyl)pyridin-2-yl)-2-(3-methyl-1-((5-methylisoxazol-3-yl)methyl)-2,6-dioxo-2,3-dihydro-1H-purin-7(6H)-yl)acetamide], the IC50 was 1610 nM.

For the compound `COc1cc(NC(=O)Cn2cnc3c2c(=O)n(Cc2cc(C)on2)c(=O)n3C)nc(C(F)(F)F)c1` [Compound 204, N-(4-methoxy-6-(trifluoromethyl)pyridin-2-yl)-2-(3-methyl-1-((5-methylisoxazol-3-yl)methyl)-2,6-dioxo-2,3-dihydro-1H-purin-7(6H)-yl)acetamide], the IC50 is 3250 nM.

In the case of `CCN(c1ccc(NC(=O)Cn2cnc3c2c(=O)n(Cc2cc(C)on2)c(=O)n3C)cc1)C(F)(F)F` [Compound 211, N-(4-(ethyl(trifluoromethyl)amino)phenyl)-2-(3-methyl-1-((5-methylisoxazol-3-yl)methyl)-2,6-dioxo-2,3-dihydro-1H-purin-7(6H)-yl)acetamide], the IC50 was greater than 1000 nM.

For `Cc1cc(Cn2c(=O)c3c(ncn3CC(=O)Nc3cccc(N4CC5CC5C4)n3)n(C)c2=O)no1` (stereo not shown) [Compound 212, N-(6-(3-azabicyclo[3.1.0]hexan-3-yl)pyridin-2-yl)-2-(3-methyl-1-((5-methylisoxazol-3-yl)methyl)-2,6-dioxo-2,3-dihydro-1H-purin-7(6H)-yl)acetamide], the IC50 was 62 nM.
